One experiment has as its system platelets. Briefly: Anti-platelet antibody R300-induced platelet clearance (ITP mouse model). The note with it: for platelet counts versus NS group at 30 min: injection 10 min before R300 (0.1 μg/g), PGE2 20 ng/ml, cAMP 12 μg/ml, P<0.05. It counts as in vivo, ICR mice.
Experiment [1] has as its system washed platelets. Kind of experiment: Fasudil platelet apoptosis (ΔΨm and PS exposure) with thrombin. The note with it: 10 min room temperature, then thrombin 0.1 U/ml 30 min 37° C. It counts as cell-based, human. Here is the method: Washed platelets (3×10^8/mL) were incubated with different Fasudil or negative control (normal saline) for 10 min at room temperature. Thereafter, except the negative control, thrombin (0.1 U/ml) was added to each group, and incubation was carried out for 30 min at 37° C. Platelet ΔΨm was measured using the lipophilic cationic dye JC-1. JC-1 with a final concentration of 2 μg/ml was added to the treated platelets, and the platelets were incubated at 37° C. for 5 min in the dark, and detected by using the flow cytometer. […] The JC-1 monomer (λex 514 nm, λem 529 nm) and the polymer (λex 585 nm, λem 590 nm) were determined by calculating the proportion of flow red fluorescence (JC-1 polymer) or green fluorescence (JC-1 monomer) (FIG. 22).
Washed platelets (3×10^8/mL) were incubated with different Fasudil or negative control (normal saline) for 10 min at room temperature. Thereafter, except the negative control, thrombin (0.1 U/ml) was added to each group, and incubation was carried out for 30 min at 37° C. After that, Annexin V buffer, treated platelets, and Annexin V-FITC in a ratio of 50:10:1 were incubated for 15 min at room temperature in the dark, and detected by using the flow cytometer (FIG. 22).

A further experiment deals with BAD position 155. Kind of experiment: Western blot / co-immunoprecipitation of BAD Ser155 phosphorylation and Bel-xL in platelets. In kind it is cell-based, human. The note with it: 37.5 uM H89 or 10 uM forskin, 160 min. Here is the method:
Next, we further explored the mechanism by which PKA inhibits induction of platelet apoptosis. At room temperature, 3×10^8/mL washed platelets were incubated with different concentration gradients of H89 or the DMSO internal reference for 160 min. The platelets were lysed on ice for 30 min with an equal volume of lysis buffer. The product was electrophoretically separated by SDS-PAGE to obtain protein fragments of different sizes. The protein fragments were blocked in skim milk powder for one hour and then the primary antibody was added for incubation. […] The washed platelets were pretreated with 37.5 uM H89, 10 uM forskin and the DMSO internal reference respectively for 160 min at room temperature. Cytoplasmic proteins (FIG. 8B) and mitochondrial proteins (FIG. 8D) were extracted from the platelets, respectively. The interest proteins were detected by western blot. The amount of the interest proteins was analyzed by Image J software. Four experiments were counted to show the results in mean±standard deviation. After lysis, the pre-treated platelets were centrifuged at 17,000 g for 10 min at 4° C. The obtained supernatant was incubated with the corresponding antibody for precipitation overnight, and after incubation with protein A/G+ agarose beads at 4° C. for 2 hours, the beads were eluted for protein hybridization (FIG. 8C).
In general terms: In western blotting, separated proteins are transferred to a membrane and probed.

Another experiment deals with caspase-3. Briefly: Western blot of caspase-3, gelsolin and caspase-3 activity in platelets. It counts as cell-based, human. The note with it: different concentrations of H89, 22° C., 30 min. Here is the method: Washed platelets were incubated with different concentrations of H89 (25 μM, 50 μM, and 100 μM) or negative control (DMSO) at room temperature for 10 min. The reaction was stopped by the addition of 2× cell lysis buffer (containing 2 mM PMSF, 2 mM NaF, 2 mM Na3VO4, and protease inhibitor), and the platelets were lysed on ice, and sampled. The samples were tested for expression of the corresponding proteins by Western blotting.
(§1) Different concentrations of H89 (0, 12.5, 25, 37.5, and 50 μM) were applied to washed platelets at 22° C. for 160 min, and mitochondrial transmembrane potential depolarization and PS exposure of platelets were detected by using the flow cytometer. The experiments were repeated four times. The washed platelets were pretreated with different concentrations of H89 at 22° C. for 30 min. At the same time, DMSO and A23187 treated negative control group and positive control group platelets were established. Caspase-3, gelsolin protein expression and caspase-3 activity in platelets were detected by Western blot. The FITC-labeled anti-CD41 antibody was mixed with the pre-treated platelets at a ratio of 1:10, and incubated at room temperature for 10 min in the dark. Analyzing the platelet size scatter plot, the decrease in the CD41 positive cell count represents a decrease in the platelet count. […]

For experiment [2], the system named is washed platelets. Kind of experiment: Scanning electron microscopy of platelet morphology. It counts as cell-based, human. To be noted: 22° C., 160 min. Here is the method:
The washed platelets were fixed with 2.5% […] at 4° C. overnight. The washed platelets were sent to a scanning electron microscope sample room for sample preparation. Morphological analysis of the platelets was carried out by the scanning electron microscope (Japan Hitachi, 5-4700). Five different fields of view were selected for observation and photographing.
as §1

The test system of the next experiment is stored platelets. Briefly: Clearance of stored platelets in the body. To be noted: in vivo. The text has this:
In addition to apoptosis, there are other changes in storage damage that result in the clearance of stored platelets in the body. Therefore, we investigated whether PKA activation protects platelet from apoptosis while preventing the stored platelets from being cleared.

The test system of experiment [3] is washed platelets. Briefly: Mitochondrial membrane potential (ΔΨm) detection with JC-1 by flow cytometer. In kind it is cell-based, human. Here is the method:
When washed platelets were prepared, venous blood from healthy volunteers was anticoagulated with ACD (2.5% sodium citrate, 2.0% glucose, and 1.5% citric acid) at 1:7, platelet-rich plasma (PRP) was obtained by centrifugation at 1300 rpm for 20 min, the PRP was centrifuged at 1500 g for 2 min, and the supernatant was discarded. The precipitated platelets were suspended, centrifuged and washed with CGS buffer (0.123 M sodium chloride, 0.033 M glucose, 0.013 M sodium citrate, pH 6.5). […] The platelets were counted by a counter. […]
Washed platelets (3×10^8/mL) were incubated with different concentrations of H89 (12.5 μM, 25 μM, 37.5 μM and 50 μM) or negative control (DMSO) for 10 min at room temperature, and then platelet ΔΨm was determined using the lipophilic cationic dye JC-1. JC-1 with a final concentration of 2 μg/ml was added to the treated platelets, and the platelets were incubated at 37° C. for 20 min in the dark, and detected by using a flow cytometer. […] The JC-1 monomer (λex 514 nm, λem 529 nm) and the polymer (λex 585 nm, λem 590 nm) were determined by calculating the proportion of flow red fluorescence (JC-1 polymer) or green fluorescence (JC-1 monomer). […]
(In general: A flow cytometer gives signals particle by particle.)

Experiment [4] deals with washed platelets. Kind of experiment: Platelet shrinkage experiment (FSC of GPIIb/IIIa positive platelets). It counts as cell-based, human. Here is the method:
Washed platelets were incubated with different concentrations of H89 (12.5 μM, 25 μM, 37.5 μM and 50 μM) or negative control (DMSO) at room temperature for 10 min. The platelets and the SZ21 antibody were then incubated for 30 min at room temperature. The platelets were centrifuged, resuspended with the FITC-labeled goat-anti-mouse antibody, and incubated for 30 min at room temperature in the dark. The platelets were collected by using a flow cytometer, and platelet scatter plots collected by FSC-FL1 were used to analyze the platelets. The degree of shrinkage of the platelets was evaluated by analyzing the change in FSC and evaluating the degree of FSC reduction in GPIIb/IIIa positive cells. A23187 was used as a positive control. DMSO was used as a negative control.
as §1, with “blot.” for “blot. The FITC-labeled anti-CD41 antibody was mixed with the pre-treated platelets at a ratio of 1:10, and incubated at room temperature for 10 min in the dark. Analyzing the platelet size scatter plot, the decrease in the CD41 positive cell count represents a decrease in the platelet count.”

Turning to `Cn1c(=O)c2[nH]cnc2n(C)c1=O` [Aminophylline, aminophylline], the “platelet clearance in vivo” value in the experiment on platelets (aminophylline 0.24 mmol/L, R300 0.1 μg/g after 10 min) was “can Inhibit”.

In the case of `O=S(=O)(c1cccc2cnccc12)N1CCCNCC1` [Fasudil], the platelet apoptosis result with washed platelets [1] is on record as “can Promote”.

For the compound `O=S(=O)(NCCNCC=Cc1ccc(Br)cc1)c1cccc2cnccc12` [H89, N-[2-((p-bromocinnamyl)amino)ethyl]-5-isoquinoline sulfonamide], in the experiment on BAD position 155, the “Bel-xL protein on the mitochondrial membrane” value is “decrease”; the “co-immunoprecipitation of Bel-xL and BAD” value is given as “significantly reduced”. The “phosphorylation of serine at the BAD position 155” value with BAD position 155 (room temperature) is given as “decreased”. In addition, in the experiment on caspase-3, the “activation of caspase-3” value was “dose-dependently induced” and the “digestion of caspase-3 substrate gelsolin” value is listed as “dose-dependently induced”. In addition, in the experiment with washed platelets [2], the “typical apoptotic morphological changes (membrane vesicles, pseudopods, shrinkage, degranulation)” value is given as “dose-dependently induce”. Moreover, in the experiment on stored platelets, the “clearance of stored platelets by the body” value is recorded as “speeds up the clearance”. For the same compound, the “ΔΨm depolarization in platelets, time dependence” value with washed platelets [3] is “in a time-dependent manner”. The “mitochondrial membrane potential (ΔΨm) depolarization in platelets, dose dependence” value with washed platelets [3] (H89 0, 12.5, 25, 37.5, 50 μM, 22° C., 160 min) was “dose-dependently induced”. In addition, the “forward scatter (FSC) of GPIIb/IIIa-positive platelets (shrinkage)” value with washed platelets [4] was “decrease”.

As to `CCCCC[C@H](O)/C=C/[C@H]1[C@H](O)CC(=O)[C@@H]1C/C=C\CCCC(=O)O` [PGE2, prostaglandin E2], the “platelet counts versus NS group at 30 min” value with platelets is given as “has statistic difference”.

With `Nc1ncnc2c1ncn2[C@@H]1O[C@@H]2COP(=O)(O)O[C@H]2[C@H]1O` [cAMP, cyclic adenosine monophosphate], the “platelet counts versus NS group at 30 min” value in the experiment with platelets is “has statistic difference”.

On to `Cc1[nH]c(=O)c(C#N)cc1-c1ccncc1` [milrinone], for which, in the experiment on platelets (milrinone 1 mg/kg tail vein, R300 0.1 mg/kg i.p. after 10 min, vs NS), the “platelet counts in peripheral blood of mice” value is “significantly increased”.

The values are drawn from US20220313719A1, “METHODS OF TREATING DISEASES ASSOCIATED WITH CHANGES IN PLATELET COUNTS USING PROTEIN KINASE A ACTIVATOR AND INHIBITOR” (Soochow university, priority 2017, published 2022).
